Patent US20100303934A1, “METHODS AND COMPOSITIONS FOR NERVE REGENERATION” (Oregon Health & Science University, priority 2004, published 2010)

How the values were obtained:
[1] = system: SH-SY5Y human neuroblastoma cells; experiment: Neurite elongation (neurite outgrowth length) assay in SH-SY5Y cells in the presence of NGF; format: cell-based; settings: for Activity in the neurite elongation assay (FIG. 17): tested at 1 μm, in the presence of NGF; for Process elongation in micrographs (FIGS. 3-10): SH-SY5Y cells at 168 hours, with NGF
Procedure: SH-SY5Y human neuroblastoma cells were maintained in DMEM medium (GIBCO) supplemented with 10% fetal calf serum (SIGMA), 50 IU/mL penicillin, and […] streptomycin (GIBCO) at 37° C. in 7% CO2. Cells were plated in six-well plates at 1×10^6 cells/well and treated with […] aphidicolin (SIGMA). At five days, cells were washed, treated with nerve growth factor (NGF) (Boehringer Mannheim, Indianapolis, Ind.) at 10 ng/mL (to induce process outgrowth) in the presence or absence of the Centella asiatica extract and extract fractions (100 μg/mL). […] All experiments were run in duplicate wells and repeated at least twice for reproducibility.
Neurite lengths were measured on photographic prints using a SummaSketch III digitizing tablet connected with Bioquant Classic 95 software (R&M Biometrics, Nashville, Term.); only those processes greater than two times the cell body length were measured. […] Histograms were compared using a Mann-Whitney U test, which makes no assumptions about the shape of the distribution.

[2] = system: SHSY5Y neuroblastoma cells; experiment: Protection against hydrogen peroxide induced toxicity (CellTiter Blue / LDH); format: cell-based, human; settings: positive control, concentration not given; H2O2 125 to 500 μM
Procedure: SHSY5Y neuroblastoma cells were grown in DMEM/F12 medium (from Gibco) containing 10% fetal calf serum (FCS), 100 ug/ml streptomycin sulphate, 100 U/ml penicillin G in a humidified air/5% CO2 chamber at 37 C. The following method was followed: Day1. Plate SHSY5Y cells on 24-well plate at 100,000/well Day4. Remove old medium, add fresh medium with 10 ng/ml NGF. Day5. Add GK, GKW or EGCG (epigallocatechin gallate; a known antioxidant), overnight. Day6. Remove old medium (containing test substances), add fresh medium (2% FCS) with 10 ng/ml NGF. Treat cells with or without H2O2, for 2-3 hours. Remove medium and H2O2, wash 1× with fresh medium with NGF, add fresh medium (2% FCS) with NGF again, incubate overnight. Day7. Harvest supernatant for LDH assay. Add fresh medium and CellTiter Blue reagent (from Promega, containing resazurin) into each well, incubate for 2 hours, read fluorescence under the Fluorometer. @ 560 nm EX/590 nm EM, cut off 590 nm.

| Molecule | Activity in the neurite elongation assay (FIG. 17) [1] | Process elongation in micrographs (FIGS. 3-10) [1] | other results |
| --- | --- | --- | --- |
| madecassoside | not active |  |  |
| O=C(O[C@@H]1Cc2c(O)cc(O)cc2O[C@@H]1c1cc(O)c(O)c(O)c1)c1cc(O)c(O)c(O)c1 [EGCG, epigallocatechin gallate] |  |  | Protection against H2O2 toxicity [2]: protective |
| C=CC[C@@H]1/C=C(\C)C[C@H](C)C[C@H](OC)[C@H]2O[C@@](O)(C(=O)C(=O)N3CCCC[C@H]3C(=O)O[C@H](/C(C)=C/[C@@H]3CC[C@@H](O)[C@H](OC)C3)[C@H](C)[C@@H](O)CC1=O)[C@H](C)C[C@@H]2OC [FK506, reference compound] |  |  | Neurite elongation activity in the absence of NGF ([1]; absence of NGF): no activity |
| C[C@H]1[C@H](C)CC[C@]2(C(=O)O)CC[C@]3(C)C(=CC[C@@H]4[C@@]5(C)C[C@@H](O)[C@H](O)[C@@](C)(CO)[C@@H]5[C@H](O)C[C@]43C)[C@H]12 [madecassic acid] | active |  |  |
| C[C@H]1[C@H](C)CC[C@]2(C(=O)O)CC[C@]3(C)C(=CC[C@@H]4[C@@]5(C)C[C@@H](O)[C@H](O)[C@@](C)(CO)[C@@H]5CC[C@]43C)[C@H]12 [asiatic acid] | active | markedly increased | Activity of AA in the presence of the MEK inhibitor PD 098059 ([1]; FIG. 10, 168 hours): prevented; Stimulation of neurite outgrowth elongation ([1]; concentration of 104 (0.5 μg/mL)): considerable stimulation |
| NGF: nerve growth factor (Boehringer Mannheim), 10 ng/mL, used to induce process outgrowth (protein, UniProt P01139 122-241, looked up, Beta-nerve growth factor, nerve growth factor (Boehringer Mannheim), 10 ng/mL, used to induce process outgrowth) Beta-nerve growth factor: SSTHPVFHMGEFSVCDSVSVWVGDKTTATDIKGKEVTVLAEVNINNSVFRQYFFETKCRASNPVESGCRGIDSKHWNSYCTTTHTFVKALTTDEKQAAWRFIRIDTACVCVLSRKATRRG |  | demonstrate process elongation | Mean neurite length (μm) at 168 h ([1]; test substance 100 μg/mL, in the presence of NGF (10 ng/mL), 168 h): 115 μm |
